Laboratory results published in paper PMC9459060 (Journal of Ginseng Research, 2022).

Biological target: T1, SLC5A1 (Homo sapiens, UniProt P13866)
T1 sequence (P13866 1-664): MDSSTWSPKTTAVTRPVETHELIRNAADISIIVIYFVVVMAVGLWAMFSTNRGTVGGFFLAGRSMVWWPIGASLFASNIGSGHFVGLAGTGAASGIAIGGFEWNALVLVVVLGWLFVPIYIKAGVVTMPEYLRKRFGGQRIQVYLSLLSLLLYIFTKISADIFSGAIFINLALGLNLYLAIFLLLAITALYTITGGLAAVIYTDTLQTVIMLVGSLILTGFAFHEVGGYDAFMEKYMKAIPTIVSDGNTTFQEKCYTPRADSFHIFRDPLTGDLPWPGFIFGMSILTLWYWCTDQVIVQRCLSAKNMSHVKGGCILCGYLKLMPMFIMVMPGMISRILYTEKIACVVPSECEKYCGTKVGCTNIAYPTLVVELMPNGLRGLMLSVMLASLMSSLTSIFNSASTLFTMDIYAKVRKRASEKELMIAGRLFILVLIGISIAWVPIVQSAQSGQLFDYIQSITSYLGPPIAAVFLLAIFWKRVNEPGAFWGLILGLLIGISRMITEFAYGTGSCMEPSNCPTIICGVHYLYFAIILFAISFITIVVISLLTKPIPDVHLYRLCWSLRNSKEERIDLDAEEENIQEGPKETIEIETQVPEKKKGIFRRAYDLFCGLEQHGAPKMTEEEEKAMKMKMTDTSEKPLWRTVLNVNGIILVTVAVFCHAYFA
Assay: SPR
Format: binding

- Kd: 680 nM
Structure (SMILES): CC(C)=CCC[C@](C)(O[C@@H]1O[C@H](CO)[C@@H](O)[C@H](O)[C@H]1O)[C@H]1CC[C@]2(C)[C@@H]1[C@H](O)C[C@@H]1[C@@]3(C)CC[C@H](O[C@@H]4O[C@H](CO)[C@@H](O)[C@H](O)[C@H]4O[C@@H]4O[C@H](CO)[C@@H](O)[C@H](O)[C@H]4O)C(C)(C)[C@@H]3CC[C@]12C [ginsenoside Rd]
